Assay results from PubChem BioAssay AID248 (DTP/NCI, 2004).
Values joined by “and” are separate entries in the source; they are usually repeats but may differ in a detail not shown here. Equal entries are not always repeated. Inconclusive results and toxic doses are left out. Cut-off read from the data, not from the text of the source: active = T/C of 150% or more; inactive = T/C below 125%.

Test system: L1210 leukemia ip in BDF1 mice, survival T/C
Assay: NCI In Vivo Anticancer Drug Screen. Data for tumor model L1210 Leukemia (intraperitoneal) in B6D2F1 (BDF1) mice
Conditions: endpoint: mean survival time, higher = longer survival
How it was run: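 Transplanted-tumor mice were given test agent; controls received vehicle only. Survival readings from the two groups were divided (treated over control).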

[1] = dose: 100.0 mg/kg/injection, schedule: Q01DX009 (ip), vehicle: Klucel (hydroxypropylcellulose) (HPC)
[2] = dose: 200.0 mg/kg/injection, schedule: Q01DX009 (ip), vehicle: Klucel (hydroxypropylcellulose) (HPC)
[3] = dose: 400.0 mg/kg/injection, schedule: Q01DX009 (ip), vehicle: Klucel (hydroxypropylcellulose) (HPC)
[4] = dose: 100.0 mg/kg/injection, schedule: Q04DX003 (ip), vehicle: Klucel (hydroxypropylcellulose) (HPC)
[5] = dose: 200.0 mg/kg/injection, schedule: Q04DX003 (ip), vehicle: Klucel (hydroxypropylcellulose) (HPC)
[6] = dose: 400.0 mg/kg/injection, schedule: Q04DX003 (ip), vehicle: Klucel (hydroxypropylcellulose) (HPC)
[7] = dose: 50.0 mg/kg/injection, schedule: Q01DX001 (ip), vehicle: carboxymethylcellulose (CMC)
[8] = dose: 100.0 mg/kg/injection, schedule: Q01DX001 (ip), vehicle: carboxymethylcellulose (CMC)
[9] = dose: 200.0 mg/kg/injection, schedule: Q01DX001 (ip), vehicle: carboxymethylcellulose (CMC)
[10] = dose: 400.0 mg/kg/injection, schedule: Q01DX001 (ip), vehicle: carboxymethylcellulose (CMC)

Measured: T/C

CC(=O)NC1C(OC(C)=O)OC2COCOC2C1OC(C)=O (stereo unspecified)
inactive: dose: 100.0 mg/kg/injection, schedule: Q01DX001 (ip), vehicle: saline with Tween-80 97 % of control | dose: 200.0 mg/kg/injection, schedule: Q01DX001 (ip), vehicle: saline with Tween-80 97 % of control | dose: 400.0 mg/kg/injection, schedule: Q01DX001 (ip), vehicle: saline with Tween-80 105 % of control

Cc1ccc(N=Cc2cc(Cl)ccc2O)cc1.Cc1ccc(N=Cc2cc(Cl)ccc2O)cc1.[Co]
inactive: dose: 25.0 mg/kg/injection, schedule: Q04DX003 (ip), vehicle: saline with Tween-80 94 % of control | dose: 100.0 mg/kg/injection, schedule: Q04DX003 (ip), vehicle: saline with Tween-80 116 % of control and 91 % of control

CCCCCCC#CC(=O)O
inactive: dose: 100.0 mg/kg/injection, schedule: Q01DX009 (sc), vehicle: olive oil, sesame oil, peanut oil 103 % of control | dose: 100.0 mg/kg/injection, schedule: Q04DX003 (sc), vehicle: olive oil, sesame oil, peanut oil 97 % of control | dose: 200.0 mg/kg/injection, schedule: Q01DX009 (sc), vehicle: olive oil, sesame oil, peanut oil 108 % of control | dose: 200.0 mg/kg/injection, schedule: Q04DX003 (sc), vehicle: olive oil, sesame oil, peanut oil 106 % of control | dose: 400.0 mg/kg/injection, schedule: Q01DX009 (sc), vehicle: olive oil, sesame oil, peanut oil 95 % of control | dose: 400.0 mg/kg/injection, schedule: Q04DX003 (sc), vehicle: olive oil, sesame oil, peanut oil 108 % of control

C=C(Br)CNC(=O)C1CCCCC1
inactive: dose: 3.0 mg/kg/injection, schedule: Q04DX003 (ip), vehicle: Klucel (hydroxypropylcellulose) (HPC) 95 % of control | dose: 6.0 mg/kg/injection, schedule: Q04DX003 (ip), vehicle: Klucel (hydroxypropylcellulose) (HPC) 107 % of control | dose: 6.25 mg/kg/injection, schedule: Q01DX009 (ip), vehicle: Klucel (hydroxypropylcellulose) (HPC) 102 % of control | dose: 12.0 mg/kg/injection, schedule: Q04DX003 (ip), vehicle: Klucel (hydroxypropylcellulose) (HPC) 93 % of control | dose: 12.5 mg/kg/injection, schedule: Q01DX009 (ip), vehicle: Klucel (hydroxypropylcellulose) (HPC) 102 % of control | dose: 25.0 mg/kg/injection, schedule: Q01DX009 (ip), vehicle: Klucel (hydroxypropylcellulose) (HPC) 100 % of control

O=C(Nc1ccccc1)Nc1ccc([N+](=O)[O-])cc1
inactive: [1] 91 % of control | dose: 100.0 mg/kg/injection, schedule: Q04DX003 (ip), vehicle: other 93 % of control | [2] 96 % of control | dose: 200.0 mg/kg/injection, schedule: Q04DX003 (ip), vehicle: other 100 % of control | [3] 86 % of control | dose: 400.0 mg/kg/injection, schedule: Q04DX003 (ip), vehicle: other 100 % of control

COc1ccccc1CN1CCCN(Cc2ccccc2OC)C1c1ccc(C2N(Cc3ccccc3OC)CCCN2Cc2ccccc2OC)cc1
inactive: dose: 100.0 mg/kg/injection, schedule: Q01DX001 (ip), vehicle: acetone 102 % of control | dose: 200.0 mg/kg/injection, schedule: Q01DX001 (ip), vehicle: acetone 96 % of control | dose: 400.0 mg/kg/injection, schedule: Q01DX001 (ip), vehicle: acetone 96 % of control

O=C(COc1ccc(F)cc1F)Oc1ccc([N+](=O)[O-])cc1
inactive: dose: 100.0 mg/kg/injection, schedule: Q04DX002 (ip), vehicle: Klucel (hydroxypropylcellulose) (HPC) 101 % of control | dose: 200.0 mg/kg/injection, schedule: Q04DX002 (ip), vehicle: Klucel (hydroxypropylcellulose) (HPC) 104 % of control | dose: 400.0 mg/kg/injection, schedule: Q04DX002 (ip), vehicle: Klucel (hydroxypropylcellulose) (HPC) 97 % of control

O=S1(=O)CC(c2cccc3ccccc23)Nc2ccccc21 (stereo unspecified)
inactive: dose: 100.0 mg/kg/injection, schedule: Q01DX001 (ip), vehicle: Klucel (hydroxypropylcellulose) (HPC) 97 % of control | [1] 95 % of control | [4] 95 % of control | dose: 200.0 mg/kg/injection, schedule: Q01DX001 (ip), vehicle: Klucel (hydroxypropylcellulose) (HPC) 93 % of control | [2] 95 % of control | [5] 90 % of control | dose: 400.0 mg/kg/injection, schedule: Q01DX001 (ip), vehicle: Klucel (hydroxypropylcellulose) (HPC) 89 % of control | [3] 94 % of control | [6] 97 % of control

COc1ccccc1CN1CCCN(Cc2ccccc2OC)C1c1ccc(N(CCCl)CCCl)cc1
inactive: [7] 115 % of control | [8] 104 % of control | [9] 104 % of control | [10] 104 % of control

NC(N)=NCCCS
inactive: dose: 75.0 mg/kg/injection, schedule: Q01DX001 (ip), vehicle: saline 104 % of control | dose: 150.0 mg/kg/injection, schedule: Q01DX001 (ip), vehicle: saline 104 % of control | dose: 300.0 mg/kg/injection, schedule: Q01DX001 (ip), vehicle: saline 104 % of control

CCCCCCCCCCOC(=S)S
inactive: dose: 50.0 mg/kg/injection, schedule: Q04DX002 (sc), vehicle: olive oil, sesame oil, peanut oil 100 % of control | dose: 100.0 mg/kg/injection, schedule: Q04DX002 (sc), vehicle: olive oil, sesame oil, peanut oil 116 % of control | dose: 200.0 mg/kg/injection, schedule: Q04DX002 (sc), vehicle: olive oil, sesame oil, peanut oil 106 % of control

NC1C(=O)NC(=O)NC1=S (stereo unspecified)
inactive: dose: 29.0 mg/kg/injection, schedule: Q01DX Z (ip), vehicle: methylcellulose (MC) 100 % of control | dose: 45.0 mg/kg/injection, schedule: Q01DX Z (ip), vehicle: methylcellulose (MC) 107 % of control

COc1cc(/C=N/O)cc(I)c1O
inactive: [1] 104 % of control | [2] 101 % of control | [3] 101 % of control

C[N+](C)(C)CCOC(=O)c1ccccc1CBr
inactive: dose: 1.5 mg/kg/injection, schedule: Q04DX002 (ip), vehicle: other 98 % of control | dose: 3.0 mg/kg/injection, schedule: Q04DX002 (ip), vehicle: other 90 % of control | dose: 3.13 mg/kg/injection, schedule: Q01DX009 (ip), vehicle: saline 101 % of control | dose: 6.0 mg/kg/injection, schedule: Q04DX002 (ip), vehicle: other 105 % of control | dose: 6.25 mg/kg/injection, schedule: Q01DX009 (ip), vehicle: saline 97 % of control | dose: 6.25 mg/kg/injection, schedule: Q04DX003 (ip), vehicle: saline 105 % of control | dose: 12.5 mg/kg/injection, schedule: Q04DX003 (ip), vehicle: saline 91 % of control

OCC1CCCC1
inactive: [7] 92 % of control | [8] 94 % of control | [9] 92 % of control | [10] 94 % of control

O=c1[nH]cc(CCc2ccccc2)c(=O)[nH]1
inactive: [1] 105 % of control | [4] 94 % of control | [2] 96 % of control | [5] 94 % of control | [3] 98 % of control | [6] 93 % of control

Cc1ccc2ccccc2c1NS(=O)(=O)c1ccccc1
inactive: dose: 100.0 mg/kg/injection, schedule: Q01DX001 (ip), vehicle: saline sonified 95 % of control | dose: 100.0 mg/kg/injection, schedule: Q01DX009 (ip), vehicle: saline with Tween-80 90 % of control | dose: 200.0 mg/kg/injection, schedule: Q01DX001 (ip), vehicle: saline sonified 95 % of control | dose: 200.0 mg/kg/injection, schedule: Q01DX009 (ip), vehicle: saline with Tween-80 90 % of control | dose: 400.0 mg/kg/injection, schedule: Q01DX001 (ip), vehicle: saline sonified 97 % of control | dose: 400.0 mg/kg/injection, schedule: Q01DX009 (ip), vehicle: saline with Tween-80 88 % of control
